# Laboratory results from US12498382B2, “Biomarkers for vitiligo” (INCYTE CORPORATION, priority 2019, dated 2025).
# Tested on: HaCaT cells
# Assay: Normalized expression of target genes in HaCaT cells stimulated with TNFα and IFNγ in presence/absence of JAK inhibitors (QuantiGene Plex)
# Type: cell-based, human
# Details: TNFα+IFNγ 25 ng/mL
# Description: Transformed human keratinocyte (HaCaT) cells were purchased from AddexBio (Catalog #T0020001) and cultured as outlined in Example 5. […] After 48 hours, cell culture media was removed from 24 well plates and replaced with 250 uL of media containing serial diluted drug, then incubated for 15 minutes at 37° C./5% CO2. After drug incubation, 250 uL of combinatory stimulation containing Recombinant Human Interferon gamma (R&D Systems, Catalog #285-IF-100) and Recombinant Human Tumor Necrosis Factor alpha (R&D Systems, Catalog #210-TA-020) was added to plates. The final concentration of Recombinant Human Interferon gamma and Recombinant Human Tumor Necrosis Factor alpha was 25 ng/mL of each cytokine. Cytokine stimulation added to wells containing drug brought the final concentrations for each drug treatment to 25 nM, 50 nM, 100 nM, and 200 nM. Treated plates were mixed by gentle agitation for 30 seconds then incubated for 24 hours at 37° C./5% CO2. At the end of the 24 hour incubation media was immediately removed from each plate.
# RNA was isolated from HaCaT cells using the QuantiGene Plex Assay reagents and protocols (Affymetrix, Catalog #QGP-232-M18042302) according to the manufacturer's guidelines. Cells were washed with 1×DPBS then lysed by incubation with provided QuantiGene lysis buffer for 30 minutes at 50-55° C. Cell lysates were incubated for 18-24 hours at 55° C. with capture beads and probe set designed to specifically hybridize to mRNA from targets of interest. Genes included housekeeping genes (e.g., HPRT1 and GAPDH) used for the normalization of the results. After the 18-24 hour incubation signal was amplified utilizing branched DNA methodologies, according to the manufacturer's procedures (Affymetrix, Catalog #QGP-232-M18042302). After hybridization and wash steps assay plate was read on the Luminex 200 and data were expressed as Net Median Fluorescence Intensity. Data was then normalized to the Net Median Fluorescence Intensity of the housekeeping gene HPRT1 (Table 14).
compound,measurement,setting,value
"C[C@@H](O)c1nc2cnc3ccsc3c2n1[C@H]1CC[C@H](CC#N)OC1 [Cpd D, ((2R,5S)-5-{2-[(1R)-1-hydroxyethyl]-1H-imidazo[4,5-d]thieno[3,2-b]pyridin-1-yl}tetrahydro-2H-pyran-2-yl)acetonitrile]",AREG normalized expression MFI,Drug Conc 25 nM,725.6 ± 33.78
same,CCL17 normalized expression MFI,Drug Conc 25 nM,3.08 ± 0.64
same,CCL18 normalized expression MFI,Drug Conc 25 nM,1.89 ± 0.28
same,FLG normalized expression MFI,Drug Conc 25 nM,71.27 ± 11.09
same,IL6 normalized expression MFI,Drug Conc 25 nM,132.28 ± 7.41
same,IL8 normalized expression MFI,Drug Conc 25 nM,398.64 ± 22.41
same,IL17A normalized expression MFI,Drug Conc 25 nM,1.05 ± 0.18
same,IL22 normalized expression MFI,Drug Conc 25 nM,1.39 ± 0.23
same,IL23A normalized expression MFI,Drug Conc 25 nM,48.01 ± 2.69
same,IL31 normalized expression MFI,Drug Conc 25 nM,1.99 ± 0.4
same,ILIA normalized expression MFI,Drug Conc 25 nM,1269.66 ± 50.59
same,JAK1 normalized expression MFI,Drug Conc 25 nM,200.4 ± 9.84
same,JAK2 normalized expression MFI,Drug Conc 25 nM,108.89 ± 3.25
same,JAK3 normalized expression MFI,Drug Conc 25 nM,0.97 ± 0.18
same,LOR normalized expression MFI,Drug Conc 25 nM,23 ± 9.47
same,S100A7 normalized expression MFI,Drug Conc 25 nM,5.37 ± 1.3
same,S100A12 normalized expression MFI,Drug Conc 25 nM,1.31 ± 0.18
same,SERPINB3 normalized expression MFI,Drug Conc 25 nM,2 ± 0.3
same,SERPINB4 normalized expression MFI,Drug Conc 25 nM,2.78 ± 0.31
same,STAT1 normalized expression MFI,Drug Conc 25 nM,3156.82 ± 244.78
same,STAT3 normalized expression MFI,Drug Conc 25 nM,1572.76 ± 65.5
same,STAT4 normalized expression MFI,Drug Conc 25 nM,5.4 ± 0.45
same,STAT5A normalized expression MFI,Drug Conc 25 nM,20.12 ± 1.29
same,STAT5B normalized expression MFI,Drug Conc 25 nM,38.56 ± 2.02
same,STAT6 normalized expression MFI,Drug Conc 25 nM,1042.76 ± 29.23
same,AREG normalized expression MFI,Drug Conc 50 nM,778.42 ± 44.28
same,CCL17 normalized expression MFI,Drug Conc 50 nM,2.71 ± 0.41
same,CCL18 normalized expression MFI,Drug Conc 50 nM,2.16 ± 0.22
same,FLG normalized expression MFI,Drug Conc 50 nM,78.47 ± 10.63
same,IL6 normalized expression MFI,Drug Conc 50 nM,137.61 ± 5.87
same,IL8 normalized expression MFI,Drug Conc 50 nM,417.47 ± 21.97
same,IL17A normalized expression MFI,Drug Conc 50 nM,1.06 ± 0.15
same,IL22 normalized expression MFI,Drug Conc 50 nM,1.4 ± 0.21
same,IL23A normalized expression MFI,Drug Conc 50 nM,56.64 ± 3.44
same,IL31 normalized expression MFI,Drug Conc 50 nM,1.82 ± 0.44
same,ILIA normalized expression MFI,Drug Conc 50 nM,1336.95 ± 50.97
same,JAK1 normalized expression MFI,Drug Conc 50 nM,210.52 ± 7.73
same,JAK2 normalized expression MFI,Drug Conc 50 nM,106.83 ± 5.94
same,JAK3 normalized expression MFI,Drug Conc 50 nM,0.99 ± 0.2
same,LOR normalized expression MFI,Drug Conc 50 nM,28.28 ± 10.86
same,S100A7 normalized expression MFI,Drug Conc 50 nM,5.94 ± 1.23
same,S100A12 normalized expression MFI,Drug Conc 50 nM,1.11 ± 0.18
same,SERPINB3 normalized expression MFI,Drug Conc 50 nM,2.54 ± 0.33
same,SERPINB4 normalized expression MFI,Drug Conc 50 nM,3.2 ± 0.53
same,STAT1 normalized expression MFI,Drug Conc 50 nM,3009.6 ± 169.64
same,STAT3 normalized expression MFI,Drug Conc 50 nM,1543.4 ± 58.65
same,STAT4 normalized expression MFI,Drug Conc 50 nM,6.1 ± 0.36
same,STAT5A normalized expression MFI,Drug Conc 50 nM,22.69 ± 1.71
same,STAT5B normalized expression MFI,Drug Conc 50 nM,40.76 ± 1.91
same,STAT6 normalized expression MFI,Drug Conc 50 nM,1046.46 ± 29.12
same,AREG normalized expression MFI,Drug Conc 100 nM,703.3 ± 37.3
same,CCL17 normalized expression MFI,Drug Conc 100 nM,2.86 ± 0.3
same,CCL18 normalized expression MFI,Drug Conc 100 nM,1.74 ± 0.26
same,FLG normalized expression MFI,Drug Conc 100 nM,69.64 ± 9.33
same,IL6 normalized expression MFI,Drug Conc 100 nM,122.46 ± 5.35
same,IL8 normalized expression MFI,Drug Conc 100 nM,410.72 ± 29.84
same,IL17A normalized expression MFI,Drug Conc 100 nM,0.84 ± 0.16
same,IL22 normalized expression MFI,Drug Conc 100 nM,1.24 ± 0.22
same,IL23A normalized expression MFI,Drug Conc 100 nM,51.42 ± 2.55
same,IL31 normalized expression MFI,Drug Conc 100 nM,1.61 ± 0.35
same,ILIA normalized expression MFI,Drug Conc 100 nM,1244.96 ± 41.03
same,JAK1 normalized expression MFI,Drug Conc 100 nM,200.25 ± 8.15
same,JAK2 normalized expression MFI,Drug Conc 100 nM,102.64 ± 3.52
same,JAK3 normalized expression MFI,Drug Conc 100 nM,1.01 ± 0.17
same,LOR normalized expression MFI,Drug Conc 100 nM,21.29 ± 9.59
same,S100A7 normalized expression MFI,Drug Conc 100 nM,4.6 ± 1.68
same,S100A12 normalized expression MFI,Drug Conc 100 nM,1.12 ± 0.15
same,SERPINB3 normalized expression MFI,Drug Conc 100 nM,2 ± 0.26
same,SERPINB4 normalized expression MFI,Drug Conc 100 nM,2.64 ± 0.3
same,STAT1 normalized expression MFI,Drug Conc 100 nM,2991.9 ± 200.56
